Assays:
Format in all cases: in vivo
[1] = tested on: common cutworm (Spodoptera Litura); experiment: Insecticidal effect on common cutworm (Test Example 2); details: 500 ppm, 25° C.; for Insecticidal effect (Test Example 2), judged from mortality / Insecticidal effect on common cutworm (Test Example 2), judged grade: cabbage leaf dip; for Insecticidal effect (Test Example 2), judged from mortality: 8 days after inoculation; for Insecticidal effect on common cutworm (Test Example 2), judged grade: second-instar larvae; for Insecticidal effect on common cutworm (Test Example 2), judged grade / Insecticidal effect, Test Example 2: eight days after inoculation; for Insecticidal effect, Test Example 2: cabbage leaf immersed
Procedure, shortened: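 Mortality is the read-out: larvae are counted as dead or alive on day 8 and the percentage is graded by an effect criterion. Second-instar larvae are kept with the air-dried treated material in a sealed dish at 25° C, in triplicate groups of ten.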

[2] = tested on: diamondback moth (Plutella xylostella); experiment: Insecticidal effect on diamondback moth (Test Example 1); details: for Insecticidal effect (Test Example 1), judged from mortality / Insecticidal effect, Test Example 1: diamondback moth; for Insecticidal effect (Test Example 1), judged from mortality: judged by the criterion of Test Example 1; for Insecticidal effect on diamondback moth (Test Example 1), judged grade: mortality judged according to the criterion shown in Test Example 1
Procedure, shortened: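 Triplicate groups of 10 insects were scored: six days after immersion of oviposited Chinese cabbage seedlings and holding at 25 °C post air-drying, hatched larvae were counted. Mortality derived from these counts and insecticidal effect judged by a set criterion.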

[3] = tested on: rice leafroller (Cnaphalocrocis medinalis); experiment: Insecticidal effect on rice leafroller (Test Example 3); details: 500 ppm, 25° C., humidity 70%; for Insecticidal effect (Test Example 3), judged from mortality / Insecticidal effect on rice leafroller (Test Example 3), judged grade: rice lamina dip; for Insecticidal effect (Test Example 3), judged from mortality: 4 days after inoculation; for Insecticidal effect on rice leafroller (Test Example 3), judged grade: third-instar larvae; for Insecticidal effect on rice leafroller (Test Example 3), judged grade / Insecticidal effect, Test Example 3: four days after inoculation; for Insecticidal effect, Test Example 3: rice lamina immersed
Procedure, shortened: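 Insecticidal effect is judged by a predefined criterion from dead/alive counts four days after infesting air-dried lamina with third-instar larvae, kept on moistened filter paper at 25° C, 70% humidity.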

[4] = second-instar larvae of common cutworm
[5] = third-instar larvae of rice leafroller
[6] = judged by the mortality criterion of Test Example 1
[7] = common cutworm second-instar larvae
[8] = mortality judged by criterion of Test Example 1
[9] = rice leafroller third-instar larvae

CC(C)(C)NC(=O)c1c(F)cccc1C(=O)Nc1ccc(C(F)(F)C(F)(F)C(F)(F)F)cc1F [compound 1509]
Insecticidal effect (Test Example 2), judged from mortality [1, 4]: C (89-80) | Insecticidal effect (Test Example 1), judged from mortality [2]: A (100) | Insecticidal effect (Test Example 3), judged from mortality [3, 5]: A (100)

CC(C)NC(=O)c1cccc(F)c1C(=O)Nc1ccc(OC(F)(F)C(F)OC(F)(F)C(F)(F)C(F)(F)F)cc1 (centres unmarked) [compound 538]
Insecticidal effect on common cutworm (Test Example 2), judged grade [1]: A (100) | Insecticidal effect on diamondback moth (Test Example 1), judged grade [2]: A (100) | Insecticidal effect on rice leafroller (Test Example 3), judged grade [3]: A (100)

Cc1cc(OC(F)F)ccc1NC(=O)c1cccc(Cl)c1C(=O)NC(C)C [compound 138]
Insecticidal effect, Test Example 2 [1, 4]: A (100) | Insecticidal effect, Test Example 1 [2, 6]: A (100) | Insecticidal effect, Test Example 3 [3, 5]: A (100)

CC(C)(C)NC(=O)c1c(Cl)cccc1C(=O)Nc1ccc(C(F)(F)C(F)(F)F)cc1 [compound 1447]
Insecticidal effect (Test Example 2), judged from mortality [1, 4]: A (100) | Insecticidal effect (Test Example 1), judged from mortality [2]: A (100) | Insecticidal effect (Test Example 3), judged from mortality [3, 5]: A (100)

Cc1cc(C(F)(F)C(F)(Cl)Cl)ccc1NC(=O)c1ccccc1C(=O)NC(C)C [compound 64]
Insecticidal effect, Test Example 2 [1, 4]: B (99-90) | Insecticidal effect, Test Example 1 [2, 6]: A (100) | Insecticidal effect, Test Example 3 [3, 5]: A (100)

CC(C)NC(=O)c1c(Cl)cccc1C(=O)Nc1ccc(C(F)(C(F)(F)F)C(F)(F)F)cc1Cl [compound 126]
Insecticidal effect, Test Example 2 [1, 4]: A (100) | Insecticidal effect, Test Example 1 [2, 6]: A (100) | Insecticidal effect, Test Example 3 [3, 5]: A (100)

Cc1cc(C(F)(F)C(F)(F)F)ccc1NC(=O)c1c(Cl)cccc1C(=O)N(C)Cc1ccccc1 [compound 1436]
Insecticidal effect, Test Example 2 [1, 7]: A (100) | Insecticidal effect, Test Example 1 [2, 8]: A (100) | Insecticidal effect, Test Example 3 [3, 9]: A (100)

Cc1cc(C#CC(C)(C)C)ccc1NC(=O)c1cccc(I)c1C(=O)NC(C)C [compound 1305]
Insecticidal effect, Test Example 2 [1, 7]: A (100) | Insecticidal effect, Test Example 1 [2, 8]: A (100) | Insecticidal effect, Test Example 3 [3, 9]: A (100)

CC(C)NC(=O)c1c(C(=O)Nc2ccc(OC(F)F)cc2)cccc1[N+](=O)[O-] [compound 617]
Insecticidal effect on common cutworm (Test Example 2), judged grade [1]: A (100) | Insecticidal effect on diamondback moth (Test Example 1), judged grade [2]: A (100) | Insecticidal effect on rice leafroller (Test Example 3), judged grade [3]: A (100)

CC(C)(C)NC(=O)c1c(Cl)cccc1C(=O)Nc1ccc(SC(F)(F)Br)cc1 [compound 1114]
Insecticidal effect, Test Example 2 [1, 7]: A (100) | Insecticidal effect, Test Example 1 [2, 8]: A (100) | Insecticidal effect, Test Example 3 [3, 9]: A (100)

Cc1cc(I)ccc1NC(=O)c1c(F)cccc1C(=O)NC(C)C [compound 547]
Insecticidal effect on common cutworm (Test Example 2), judged grade [1]: A (100) | Insecticidal effect on diamondback moth (Test Example 1), judged grade [2]: A (100) | Insecticidal effect on rice leafroller (Test Example 3), judged grade [3]: D (79-50)

Cc1cc(F)ccc1NC(=O)c1cccc(I)c1C(=O)NC(C)C [compound 368]
Insecticidal effect, Test Example 2 [1, 4]: A (100) | Insecticidal effect, Test Example 1 [2, 6]: A (100) | Insecticidal effect, Test Example 3 [3, 5]: A (100)

Cc1cc(I)ccc1NC(=O)c1cccc(F)c1C(=O)NC(C)C [compound 492]
Insecticidal effect on common cutworm (Test Example 2), judged grade [1]: A (100) | Insecticidal effect on diamondback moth (Test Example 1), judged grade [2]: A (100) | Insecticidal effect on rice leafroller (Test Example 3), judged grade [3]: A (100)

CCN(CC)C(=O)c1c(Cl)cccc1C(=O)Nc1ccc(OC(F)F)cc1C [compound 1538]
Insecticidal effect (Test Example 2), judged from mortality [1, 4]: A (100) | Insecticidal effect (Test Example 1), judged from mortality [2]: A (100) | Insecticidal effect (Test Example 3), judged from mortality [3, 5]: A (100)

Cc1cc(Oc2c(F)c(F)c(F)c(F)c2F)ccc1NC(=O)c1cccc(I)c1C(=O)NC(C)C [compound 397]
Insecticidal effect, Test Example 2 [1, 4]: A (100) | Insecticidal effect, Test Example 1 [2, 6]: A (100) | Insecticidal effect, Test Example 3 [3, 5]: A (100)

Cc1cc(C(F)(F)C(F)(F)F)ccc1NC(=O)c1cccc(I)c1C(=O)NCC1CCCCC1 [compound 1028]
Insecticidal effect, Test Example 2 [1, 7]: A (100) | Insecticidal effect, Test Example 1 [2, 8]: A (100) | Insecticidal effect, Test Example 3 [3, 9]: A (100)

Cc1cc(C(F)(C(F)(F)F)C(F)(F)F)ccc1NC(=O)c1cccc(I)c1C(=O)NC(C)c1ccco1 (centres unmarked) [compound 1799]
Insecticidal effect (Test Example 2), judged from mortality [1, 4]: A (100) | Insecticidal effect (Test Example 1), judged from mortality [2]: A (100) | Insecticidal effect (Test Example 3), judged from mortality [3, 5]: A (100)

CC(C)NC(=O)c1c(C(=O)Nc2ccc(C(F)(C(F)(F)F)C(F)(F)F)cc2)cccc1[N+](=O)[O-] [compound 610]
Insecticidal effect on common cutworm (Test Example 2), judged grade [1]: A (100) | Insecticidal effect on diamondback moth (Test Example 1), judged grade [2]: A (100) | Insecticidal effect on rice leafroller (Test Example 3), judged grade [3]: C (89-80)

Cc1cc(OC(F)(F)C(F)OC(F)(F)F)ccc1NC(=O)c1ccccc1C(=O)NC(C)C (centres unmarked) [compound 67]
Insecticidal effect, Test Example 2 [1, 4]: A (100) | Insecticidal effect, Test Example 1 [2, 6]: A (100) | Insecticidal effect, Test Example 3 [3, 5]: A (100)

CC(C)(C)NC(=O)c1c(Cl)cccc1C(=O)Nc1ccc(C(O)(C(F)(F)F)C(F)(F)F)cc1 [compound 1053]
Insecticidal effect, Test Example 2 [1, 7]: A (100) | Insecticidal effect, Test Example 1 [2, 8]: A (100) | Insecticidal effect, Test Example 3 [3, 9]: A (100)

CSc1cccc(C(=O)Nc2ccc(Cl)cc2C)c1C(=O)NC(C)C [compound 781]
Insecticidal effect on common cutworm (Test Example 2), judged grade [1]: A (100) | Insecticidal effect on diamondback moth (Test Example 1), judged grade [2]: A (100) | Insecticidal effect on rice leafroller (Test Example 3), judged grade [3]: A (100)

Cc1cc(C(F)(F)C(F)(F)F)ccc1NC(=O)c1cccc([N+](=O)[O-])c1C(=O)NC(C)C [compound 683]
Insecticidal effect on common cutworm (Test Example 2), judged grade [1]: A (100) | Insecticidal effect on diamondback moth (Test Example 1), judged grade [2]: A (100) | Insecticidal effect on rice leafroller (Test Example 3), judged grade [3]: A (100)

CCc1cc(I)ccc1NC(=O)c1cccc(I)c1C(=O)NC(C)C [compound 951]
Insecticidal effect, Test Example 2 [1, 7]: A (100) | Insecticidal effect, Test Example 1 [2, 8]: A (100) | Insecticidal effect, Test Example 3 [3, 9]: A (100)

Cc1cc(OC(F)F)ccc1NC(=O)c1ccc2ccccc2c1C(=O)NC(C)C [compound 819]
Insecticidal effect on common cutworm (Test Example 2), judged grade [1]: B (99-90) | Insecticidal effect on diamondback moth (Test Example 1), judged grade [2]: A (100) | Insecticidal effect on rice leafroller (Test Example 3), judged grade [3]: A (100)

Cc1ccc(Cl)cc1NC(=O)c1cccc(F)c1C(=O)NC(C)C [compound 491]
Insecticidal effect on common cutworm (Test Example 2), judged grade [1]: A (100) | Insecticidal effect on diamondback moth (Test Example 1), judged grade [2]: A (100) | Insecticidal effect on rice leafroller (Test Example 3), judged grade [3]: A (100)

Cc1cc(OC(F)(F)C(F)(Cl)Cl)ccc1NC(=O)c1c(I)cccc1C(=O)NC(C)C [compound 445]
Insecticidal effect on common cutworm (Test Example 2), judged grade [1]: B (99-90) | Insecticidal effect on rice leafroller (Test Example 3), judged grade [3]: A (100)

CC(C)NC(=O)c1cccc(Cl)c1C(=O)Nc1ccc(C(F)(C(F)(F)F)C(F)(F)F)cc1Cl [compound 231]
Insecticidal effect, Test Example 2 [1, 4]: B (99-90) | Insecticidal effect, Test Example 3 [3, 5]: A (100)

Cc1cc(C(F)(F)C(F)(F)F)c(C)cc1NC(=O)c1cccc(I)c1C(=O)NC(C)(C)C [compound 1656]
Insecticidal effect (Test Example 2), judged from mortality [1, 4]: A (100) | Insecticidal effect (Test Example 3), judged from mortality [3, 5]: A (100)

Cc1cc(OC(F)(F)C(F)(Cl)Cl)ccc1NC(=O)c1c(Cl)cccc1C(=O)NC(C)C [compound 228]
Insecticidal effect, Test Example 2 [1, 4]: B (99-90) | Insecticidal effect, Test Example 3 [3, 5]: A (100)

Cc1cc(OC(F)F)ccc1NC(=O)c1c(Cl)cccc1C(=O)NCc1ccccc1Cl [compound 1424]
Insecticidal effect, Test Example 2 [1, 7]: A (100) | Insecticidal effect, Test Example 3 [3, 9]: A (100)

Cc1ccc(NC(=O)c2cccc(Br)c2C(=O)NC(C)C)c(C)c1 [compound 264]
Insecticidal effect, Test Example 2 [1, 4]: D (79-50) | Insecticidal effect, Test Example 3 [3, 5]: A (100)

CC(C)(C)NC(=O)c1c(I)cccc1C(=O)Nc1cc2c(cc1F)OC(F)(F)O2 [compound 1596]
Insecticidal effect (Test Example 2), judged from mortality [1, 4]: A (100) | Insecticidal effect (Test Example 1), judged from mortality [2]: A (100)

Cc1c(NC(=O)c2cccc(I)c2C(=O)NC(C)C)ccc(C(F)(F)C(F)(F)F)c1C [compound 1612]
Insecticidal effect (Test Example 2), judged from mortality [1, 4]: A (100) | Insecticidal effect (Test Example 1), judged from mortality [2]: A (100)

Cc1cc([N+](=O)[O-])ccc1NC(=O)c1cccc([N+](=O)[O-])c1C(=O)NC(C)C [compound 706]
Insecticidal effect on common cutworm (Test Example 2), judged grade [1]: A (100) | Insecticidal effect on diamondback moth (Test Example 1), judged grade [2]: A (100)

CC(C)NC(=O)c1cccc(I)c1C(=O)Nc1ccc(SC(F)(F)C(F)(F)C(F)(F)F)cc1 [compound 424]
Insecticidal effect, Test Example 2 [1, 4]: A (100) | Insecticidal effect, Test Example 1 [2, 6]: A (100)

CC(C)NC(=O)c1c(I)cccc1C(=O)Nc1cc2c(cc1Cl)OC(F)C(F)(F)O2 (racemic) [compound 1600]
Insecticidal effect (Test Example 2), judged from mortality [1, 4]: A (100) | Insecticidal effect (Test Example 1), judged from mortality [2]: A (100)

CC(C)(C)NC(=O)c1ccccc1C(=O)Nc1ccc(C(O)(C(F)(F)F)C(F)(F)F)cc1 [compound 1052]
Insecticidal effect, Test Example 2 [1, 7]: A (100) | Insecticidal effect, Test Example 1 [2, 8]: A (100)

CC(C)NC(=O)c1c(I)cccc1C(=O)Nc1ccc2oc(C(F)(F)F)nc2c1Cl [compound 1682]
Insecticidal effect (Test Example 2), judged from mortality [1, 4]: A (100) | Insecticidal effect (Test Example 1), judged from mortality [2]: A (100)
